What all share (test): relative viability (nuclei count vs DMSO), 5 days (fraction); higher = more cells survive
Compound in the experiment “RAF265 + AZD7762”: Cn1c(Nc2ccc(C(F)(F)F)cc2)nc2cc(Oc3ccnc(-c4ncc(C(F)(F)F)[nH]4)c3)ccc21 [RAF265] + NC(=O)Nc1cc(-c2cccc(F)c2)sc1C(=O)N[C@H]1CCCNC1 [AZD7762] (partner 0.2 µM)
Summed up: (§1)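 For relative viability, nuclei counts in treated wells were divided by those in vehicle wells. Lung cancer cell lines had been pin-tool dosed in 1536-well plates the day after seeding and cultured for 5 days, then fixed and stained in one step (final 0.05% Triton X-100, 1% formaldehyde, 1 ug/ml Hoechst) and imaged at 4×. Doses were one drug alone or a fixed anchor-drug dose plus five library-drug doses (not always all listed) in √10 steps, and values are duplicate-plate medians.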

Compound in the experiment “RAF265 + Palbociclib”: Cn1c(Nc2ccc(C(F)(F)F)cc2)nc2cc(Oc3ccnc(-c4ncc(C(F)(F)F)[nH]4)c3)ccc21 [RAF265] + CC(=O)c1c(C)c2cnc(Nc3ccc(N4CCNCC4)cn3)nc2n(C2CCCC2)c1=O [Palbociclib] (partner 0.5 µM)
The method, boiled down: as §1

Compound in the experiment “IPA-3 + Pictilisib”: C1=CC=C2C(=C1)C=CC(=C2SSC3=C(C=CC4=CC=CC=C43)O)O [IPA-3] + CS(=O)(=O)N1CCN(Cc2cc3nc(-c4cccc5[nH]ncc45)nc(N4CCOCC4)c3s2)CC1 [Pictilisib] (partner 1 µM)
The method, boiled down:
as §1

Compound in the experiment “RAF265 + Trametinib”: Cn1c(Nc2ccc(C(F)(F)F)cc2)nc2cc(Oc3ccnc(-c4ncc(C(F)(F)F)[nH]4)c3)ccc21 [RAF265] + CC(=O)Nc1cccc(-n2c(=O)n(C3CC3)c(=O)c3c(Nc4ccc(I)cc4F)n(C)c(=O)c(C)c32)c1 [Trametinib] (partner 0.02 µM)
Summed up: as §1

With NCI-H1975, the relative viability with RAF265 + AZD7762 (first compound 0.01 µM) is 0.694; with RAF265 + AZD7762 (first compound 0.03162 µM), 0.667; with RAF265 + AZD7762 (first compound 0.1 µM), 0.635; in the experiment with RAF265 + AZD7762 (first compound 0.3162 µM), 0.484; with RAF265 + AZD7762 (first compound 1 µM), 0.406; in the experiment with RAF265 + Palbociclib (first compound 0.01 µM), 0.609. Besides, the relative viability with RAF265 + Palbociclib (first compound 0.03162 µM) came out at 0.396; in the experiment with RAF265 + Palbociclib (first compound 0.1 µM) it was 0.263; in the experiment with RAF265 + Palbociclib (first compound 0.3162 µM) it was 0.184; in the experiment with RAF265 + Palbociclib (first compound 1 µM), 0.182; in the experiment with IPA-3 + Pictilisib (first compound 0.2 µM), 0.342; with IPA-3 + Pictilisib (first compound 0.6325 µM) it was 0.284. Further, the relative viability in the experiment with IPA-3 + Pictilisib (first compound 2 µM) was 0.316; with IPA-3 + Pictilisib (first compound 6.325 µM) it was 0.321; with IPA-3 + Pictilisib (first compound 20 µM), 0.259; with RAF265 + Trametinib (first compound 0.01 µM), 0.422; in the experiment with RAF265 + Trametinib (first compound 0.03162 µM), 0.286; with RAF265 + Trametinib (first compound 0.1 µM), 0.22. Further, the relative viability with RAF265 + Trametinib (first compound 0.3162 µM) was found to be 0.173; with RAF265 + Trametinib (first compound 1 µM), 0.191.

For the cell line NCI-H1993, the relative viability with RAF265 + AZD7762 (first compound 0.01 µM) was determined as 0.784; with RAF265 + AZD7762 (first compound 0.03162 µM), 0.82; in the experiment with RAF265 + AZD7762 (first compound 0.1 µM), 0.791; with RAF265 + AZD7762 (first compound 0.3162 µM) it was 0.602; with RAF265 + AZD7762 (first compound 1 µM), 0.635; with RAF265 + Palbociclib (first compound 0.01 µM), 0.584. Besides, the relative viability with RAF265 + Palbociclib (first compound 0.03162 µM) is 0.595; with RAF265 + Palbociclib (first compound 0.1 µM) it was 0.661; in the experiment with RAF265 + Palbociclib (first compound 0.3162 µM), 0.575; in the experiment with RAF265 + Palbociclib (first compound 1 µM), 0.507; with IPA-3 + Pictilisib (first compound 0.2 µM) it was 0.735; with IPA-3 + Pictilisib (first compound 0.6325 µM), 0.742. In addition, the relative viability with IPA-3 + Pictilisib (first compound 2 µM) was 0.969; with IPA-3 + Pictilisib (first compound 6.325 µM), 0.681; in the experiment with IPA-3 + Pictilisib (first compound 20 µM), 1.04; with RAF265 + Trametinib (first compound 0.01 µM), 0.585; with RAF265 + Trametinib (first compound 0.03162 µM), 0.619; with RAF265 + Trametinib (first compound 0.1 µM) it was 0.542. Moreover, the relative viability was 0.384 in the experiment with RAF265 + Trametinib (first compound 0.3162 µM) and 0.435 with RAF265 + Trametinib (first compound 1 µM).

NCI-H2085: the relative viability in the experiment with RAF265 + AZD7762 (first compound 0.01 µM) is 1.06; with RAF265 + AZD7762 (first compound 0.03162 µM), 0.879; with RAF265 + AZD7762 (first compound 0.1 µM), 1.05; with RAF265 + AZD7762 (first compound 0.3162 µM), 1.1; with RAF265 + AZD7762 (first compound 1 µM), 0.857; in the experiment with RAF265 + Palbociclib (first compound 0.01 µM), 0.49. Moreover, the relative viability came to 0.477 with RAF265 + Palbociclib (first compound 0.03162 µM); 0.483 with RAF265 + Palbociclib (first compound 0.1 µM); 0.506 with RAF265 + Palbociclib (first compound 0.3162 µM); 0.52 with RAF265 + Palbociclib (first compound 1 µM); 0.44 in the experiment with IPA-3 + Pictilisib (first compound 0.2 µM); 0.44 with IPA-3 + Pictilisib (first compound 0.6325 µM). Further, the relative viability stood at 0.447 with IPA-3 + Pictilisib (first compound 2 µM); 0.426 in the experiment with IPA-3 + Pictilisib (first compound 6.325 µM); 0.535 with IPA-3 + Pictilisib (first compound 20 µM); 0.45 with RAF265 + Trametinib (first compound 0.01 µM); 0.524 with RAF265 + Trametinib (first compound 0.03162 µM); 0.514 in the experiment with RAF265 + Trametinib (first compound 0.1 µM). Also, the figures for the relative viability with RAF265 + Trametinib (first compound 0.3162 µM) and in the experiment with RAF265 + Trametinib (first compound 1 µM) were 0.511 and 0.545, respectively.

On to NCI-H2087, for which the relative viability with RAF265 + AZD7762 (first compound 0.01 µM) came to 1.19; in the experiment with RAF265 + AZD7762 (first compound 0.03162 µM), 1.18; with RAF265 + AZD7762 (first compound 0.1 µM) it was 1.02; with RAF265 + AZD7762 (first compound 0.3162 µM), 1.2; in the experiment with RAF265 + AZD7762 (first compound 1 µM), 1.12; with RAF265 + Palbociclib (first compound 0.01 µM), 0.238. Further, the relative viability worked out at 0.207 with RAF265 + Palbociclib (first compound 0.03162 µM); 0.181 with RAF265 + Palbociclib (first compound 0.1 µM); 0.164 with RAF265 + Palbociclib (first compound 0.3162 µM); 0.159 with RAF265 + Palbociclib (first compound 1 µM); 0.891 in the experiment with IPA-3 + Pictilisib (first compound 0.2 µM); 0.784 with IPA-3 + Pictilisib (first compound 0.6325 µM). Also, the relative viability with IPA-3 + Pictilisib (first compound 2 µM) came out at 0.894; with IPA-3 + Pictilisib (first compound 6.325 µM) it was 0.936; in the experiment with IPA-3 + Pictilisib (first compound 20 µM) it was 1.01; in the experiment with RAF265 + Trametinib (first compound 0.01 µM), 0.195; with RAF265 + Trametinib (first compound 0.03162 µM) it was 0.148; with RAF265 + Trametinib (first compound 0.1 µM) it was 0.154. In addition, the values for the relative viability in the experiment with RAF265 + Trametinib (first compound 0.3162 µM) and with RAF265 + Trametinib (first compound 1 µM) were 0.161 and 0.129, respectively.

On to NCI-H2126, for which the relative viability with RAF265 + AZD7762 (first compound 0.01 µM) amounted to 1.04; in the experiment with RAF265 + AZD7762 (first compound 0.03162 µM) it was 0.962; with RAF265 + AZD7762 (first compound 0.1 µM) it was 0.968; in the experiment with RAF265 + AZD7762 (first compound 0.3162 µM), 0.935; in the experiment with RAF265 + AZD7762 (first compound 1 µM), 0.848; with RAF265 + Palbociclib (first compound 0.01 µM), 0.373. Moreover, the relative viability with RAF265 + Palbociclib (first compound 0.03162 µM) was determined as 0.354; with RAF265 + Palbociclib (first compound 0.1 µM), 0.377; in the experiment with RAF265 + Palbociclib (first compound 0.3162 µM), 0.361; with RAF265 + Palbociclib (first compound 1 µM), 0.365; with IPA-3 + Pictilisib (first compound 0.2 µM) it was 0.48; with IPA-3 + Pictilisib (first compound 0.6325 µM), 0.505. Besides, the relative viability with IPA-3 + Pictilisib (first compound 2 µM) is 0.449; with IPA-3 + Pictilisib (first compound 6.325 µM), 0.503; in the experiment with IPA-3 + Pictilisib (first compound 20 µM), 0.512; with RAF265 + Trametinib (first compound 0.01 µM), 0.635; with RAF265 + Trametinib (first compound 0.03162 µM), 0.526; with RAF265 + Trametinib (first compound 0.1 µM) it was 0.539. Moreover, the relative viability with RAF265 + Trametinib (first compound 0.3162 µM) was determined as 0.506; with RAF265 + Trametinib (first compound 1 µM), 0.342.

With NCI-H2170, the relative viability with RAF265 + AZD7762 (first compound 0.01 µM) was 0.876; with RAF265 + AZD7762 (first compound 0.03162 µM), 0.72; in the experiment with RAF265 + AZD7762 (first compound 0.1 µM), 0.761; with RAF265 + AZD7762 (first compound 0.3162 µM), 0.363; with RAF265 + AZD7762 (first compound 1 µM), 0.615; with RAF265 + Palbociclib (first compound 0.01 µM), 0.398. Moreover, the relative viability in the experiment with RAF265 + Palbociclib (first compound 0.03162 µM) is 0.295; in the experiment with RAF265 + Palbociclib (first compound 0.1 µM), 0.354; in the experiment with RAF265 + Palbociclib (first compound 0.3162 µM) it was 0.26; in the experiment with RAF265 + Palbociclib (first compound 1 µM), 0.295; in the experiment with IPA-3 + Pictilisib (first compound 0.2 µM), 0.324; with IPA-3 + Pictilisib (first compound 0.6325 µM), 0.302. Besides, the relative viability with IPA-3 + Pictilisib (first compound 2 µM) turned out to be 0.303; with IPA-3 + Pictilisib (first compound 6.325 µM), 0.303; in the experiment with IPA-3 + Pictilisib (first compound 20 µM), 0.346; in the experiment with RAF265 + Trametinib (first compound 0.01 µM), 0.928; in the experiment with RAF265 + Trametinib (first compound 0.03162 µM), 0.86; with RAF265 + Trametinib (first compound 0.1 µM) it was 0.792. The relative viability in the experiment with RAF265 + Trametinib (first compound 0.3162 µM) turned out to be 0.666; with RAF265 + Trametinib (first compound 1 µM) it was 0.56.

The record behind these values is the supplement of paper PMC10307832.
